# Measured values taken from ChEMBL document CHEMBL1821596, “Isolation and structural identification of a direct-acting mutagen derived from N-nitroso-N-methylpentylamine and Fenton's reagent with copper ion” (Bioorg Med Chem, 2011).
# Columns and labels:
# Assay type in all cases: toxicity, organism-based
# Conditions in all cases: salmonella enterica subsp. enterica serovar typhimurium
# Salmonella typhimurium [1] = test: Mutagenic activity in Salmonella Typhimurium TA1535 at 100 uM after 2 hrs by plate-incorporating method
# Salmonella typhimurium [2] = test: Mutagenic activity in Salmonella Typhimurium TA1535 at 100 uM after 2 hrs by plate-incorporating method in presence of Fe2+-Cu2+-H2O2 and nitric oxide
# Salmonella typhimurium [3] = test: Mutagenic activity in Salmonella Typhimurium TA1535 at 100 uM after 2 hrs by plate-incorporating method in presence of Fe2+-H2O2
# Salmonella typhimurium [4] = test: Mutagenic activity in Salmonella Typhimurium TA1535 at 100 uM after 2 hrs by plate-incorporating method in presence of H2O2
# Salmonella typhimurium [5] = test: Mutagenic activity in Salmonella Typhimurium TA1535 at 100 uM after 2 hrs by plate-incorporating method in presence of Fe2+-Cu2+-H2O2
# Salmonella typhimurium [6] = test: Mutagenic activity in Salmonella Typhimurium TA1535 at 100 uM after 2 hrs by plate-incorporating method in presence of Cu2+-H2O2
# Salmonella typhimurium [7] = test: Mutagenic activity in Salmonella Typhimurium TA1535 at 100 uM after 2 hrs by plate-incorporating method in presence of Cu2+-Fe2+
Compound,Activity (Salmonella typhimurium [1]),Activity (Salmonella typhimurium [2]),Activity (Salmonella typhimurium [3]),Activity (Salmonella typhimurium [4]),Activity (Salmonella typhimurium [5]),Activity (Salmonella typhimurium [6]),Activity (Salmonella typhimurium [7])
CCC1([N+](=O)[O-])CCN=[N+]1[O-] (configuration not stated),Toxic,,,,,,
CCCCCN(C)N=O,,Toxic,Non-toxic,Non-toxic,Toxic,Toxic,Non-toxic
